Measurements from ChEMBL document CHEMBL5465560, “Selectivity Literature for EUbOPEN Chemogenomic Library” (2024).

Legend:
[1] = molecular target: T1, Muscle, skeletal receptor tyrosine-protein kinase (Homo sapiens) (UniProt O15146); test: Selectivity interaction (KinomeScan (DiscoverX)) EUB0000666a MUSK; settings: at 10 µM
T1 sequence (whole entry): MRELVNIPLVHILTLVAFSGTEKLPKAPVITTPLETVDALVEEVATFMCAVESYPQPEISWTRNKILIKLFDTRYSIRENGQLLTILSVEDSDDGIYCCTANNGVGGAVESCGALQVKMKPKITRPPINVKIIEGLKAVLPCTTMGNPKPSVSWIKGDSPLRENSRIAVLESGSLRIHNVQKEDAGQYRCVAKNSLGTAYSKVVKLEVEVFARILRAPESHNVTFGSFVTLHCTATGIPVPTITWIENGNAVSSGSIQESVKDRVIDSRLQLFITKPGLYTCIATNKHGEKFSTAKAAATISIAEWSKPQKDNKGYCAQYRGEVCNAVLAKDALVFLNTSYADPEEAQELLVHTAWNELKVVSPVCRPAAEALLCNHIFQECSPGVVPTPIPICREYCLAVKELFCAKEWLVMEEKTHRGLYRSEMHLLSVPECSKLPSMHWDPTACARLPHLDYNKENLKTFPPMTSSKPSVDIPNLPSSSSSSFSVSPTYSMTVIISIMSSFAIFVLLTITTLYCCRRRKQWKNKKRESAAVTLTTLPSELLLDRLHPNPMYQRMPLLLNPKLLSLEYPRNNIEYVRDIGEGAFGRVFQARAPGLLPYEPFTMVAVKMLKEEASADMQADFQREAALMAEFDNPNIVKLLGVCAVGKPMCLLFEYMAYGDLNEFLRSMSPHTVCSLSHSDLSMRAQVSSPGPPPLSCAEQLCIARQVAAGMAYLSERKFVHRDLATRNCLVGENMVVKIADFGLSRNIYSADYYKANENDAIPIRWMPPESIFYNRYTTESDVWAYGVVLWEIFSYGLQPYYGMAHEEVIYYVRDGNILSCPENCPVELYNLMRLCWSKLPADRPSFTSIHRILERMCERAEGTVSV

[2] = molecular target: Cyclin-dependent kinase 5 (Homo sapiens, UniProt Q00535); test: Selectivity interaction (KinomeScan (DiscoverX)) EUB0000045b CDK5
[3] = molecular target: Serine/threonine-protein kinase mTOR (Homo sapiens, UniProt P42345); settings: at 10 µM
[4] = molecular target: T2, Serine/threonine-protein kinase TAO2 (Homo sapiens) (UniProt Q9UL54); test: Selectivity interaction (KinomeScan (DiscoverX)) EUB0000655a TAOK2; settings: at 10 µM
T2 sequence (whole entry): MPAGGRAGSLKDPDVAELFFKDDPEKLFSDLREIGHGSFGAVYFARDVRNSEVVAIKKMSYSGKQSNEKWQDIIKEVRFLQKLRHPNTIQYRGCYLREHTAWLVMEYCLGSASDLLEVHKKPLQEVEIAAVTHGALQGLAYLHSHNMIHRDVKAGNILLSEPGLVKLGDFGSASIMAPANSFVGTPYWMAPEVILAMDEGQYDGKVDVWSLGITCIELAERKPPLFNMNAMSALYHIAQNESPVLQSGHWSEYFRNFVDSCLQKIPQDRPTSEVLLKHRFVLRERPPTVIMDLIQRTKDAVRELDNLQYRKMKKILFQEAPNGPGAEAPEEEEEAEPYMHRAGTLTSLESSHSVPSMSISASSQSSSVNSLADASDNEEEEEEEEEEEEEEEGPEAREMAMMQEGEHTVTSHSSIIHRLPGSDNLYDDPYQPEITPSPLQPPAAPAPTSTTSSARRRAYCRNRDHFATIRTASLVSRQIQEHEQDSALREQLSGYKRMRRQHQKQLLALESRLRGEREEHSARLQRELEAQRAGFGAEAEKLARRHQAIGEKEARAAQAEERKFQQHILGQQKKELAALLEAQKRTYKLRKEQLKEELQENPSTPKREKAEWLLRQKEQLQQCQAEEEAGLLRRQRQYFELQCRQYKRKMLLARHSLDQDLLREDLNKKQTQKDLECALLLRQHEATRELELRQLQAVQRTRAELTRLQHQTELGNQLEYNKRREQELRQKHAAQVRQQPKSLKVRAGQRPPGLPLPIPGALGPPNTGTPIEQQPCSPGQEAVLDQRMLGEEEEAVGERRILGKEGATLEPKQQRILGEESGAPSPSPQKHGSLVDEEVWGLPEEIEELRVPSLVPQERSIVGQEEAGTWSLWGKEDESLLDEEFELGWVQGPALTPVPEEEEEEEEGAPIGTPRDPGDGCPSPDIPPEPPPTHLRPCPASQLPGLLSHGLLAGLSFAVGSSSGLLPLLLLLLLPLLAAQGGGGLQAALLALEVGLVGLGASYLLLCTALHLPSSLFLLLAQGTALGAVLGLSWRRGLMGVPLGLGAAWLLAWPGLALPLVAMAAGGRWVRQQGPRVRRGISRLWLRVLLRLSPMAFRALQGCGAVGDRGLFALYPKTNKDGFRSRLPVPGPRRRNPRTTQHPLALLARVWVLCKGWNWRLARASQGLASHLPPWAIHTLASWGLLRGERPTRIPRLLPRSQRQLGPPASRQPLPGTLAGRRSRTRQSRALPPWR

[5] = molecular target: T3, Serine/threonine-protein kinase RIO3 (Homo sapiens) (UniProt O14730); test: Selectivity interaction (KinomeScan (DiscoverX)) EUB0000695a RIOK3; settings: at 100 nM
T3 sequence (whole entry): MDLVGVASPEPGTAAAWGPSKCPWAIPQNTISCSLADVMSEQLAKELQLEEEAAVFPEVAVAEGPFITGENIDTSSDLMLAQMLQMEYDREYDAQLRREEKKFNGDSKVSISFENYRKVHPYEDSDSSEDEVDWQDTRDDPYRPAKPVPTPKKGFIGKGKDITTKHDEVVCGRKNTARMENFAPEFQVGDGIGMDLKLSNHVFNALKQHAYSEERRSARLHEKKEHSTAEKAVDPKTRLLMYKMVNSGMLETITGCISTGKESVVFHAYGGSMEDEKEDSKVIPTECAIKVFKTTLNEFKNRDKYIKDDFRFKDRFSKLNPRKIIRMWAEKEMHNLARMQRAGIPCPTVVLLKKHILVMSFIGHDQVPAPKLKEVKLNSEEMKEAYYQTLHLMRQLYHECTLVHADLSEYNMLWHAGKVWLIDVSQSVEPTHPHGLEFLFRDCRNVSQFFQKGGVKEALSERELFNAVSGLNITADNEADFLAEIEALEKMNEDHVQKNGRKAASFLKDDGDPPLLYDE

[6] = molecular target: MAP kinase-interacting serine/threonine-protein kinase 1 (Homo sapiens) (UniProt Q9BUB5); test: Selectivity interaction (KinomeScan (DiscoverX)) EUB0000695a MKNK1; settings: at 100 nM
[7] = molecular target: Phosphatidylinositol 4,5-bisphosphate 3-kinase catalytic subunit alpha isoform (Homo sapiens) (UniProt P42336); test: Selectivity interaction (Adapta Assay) EUB0001632a PIK3CA; settings: at 10 µM
Phosphatidylinositol 4,5-bisphosphate 3-kinase catalytic subunit alpha isoform (Homo sapiens), sequence (P42336 whole entry, canonical isoform): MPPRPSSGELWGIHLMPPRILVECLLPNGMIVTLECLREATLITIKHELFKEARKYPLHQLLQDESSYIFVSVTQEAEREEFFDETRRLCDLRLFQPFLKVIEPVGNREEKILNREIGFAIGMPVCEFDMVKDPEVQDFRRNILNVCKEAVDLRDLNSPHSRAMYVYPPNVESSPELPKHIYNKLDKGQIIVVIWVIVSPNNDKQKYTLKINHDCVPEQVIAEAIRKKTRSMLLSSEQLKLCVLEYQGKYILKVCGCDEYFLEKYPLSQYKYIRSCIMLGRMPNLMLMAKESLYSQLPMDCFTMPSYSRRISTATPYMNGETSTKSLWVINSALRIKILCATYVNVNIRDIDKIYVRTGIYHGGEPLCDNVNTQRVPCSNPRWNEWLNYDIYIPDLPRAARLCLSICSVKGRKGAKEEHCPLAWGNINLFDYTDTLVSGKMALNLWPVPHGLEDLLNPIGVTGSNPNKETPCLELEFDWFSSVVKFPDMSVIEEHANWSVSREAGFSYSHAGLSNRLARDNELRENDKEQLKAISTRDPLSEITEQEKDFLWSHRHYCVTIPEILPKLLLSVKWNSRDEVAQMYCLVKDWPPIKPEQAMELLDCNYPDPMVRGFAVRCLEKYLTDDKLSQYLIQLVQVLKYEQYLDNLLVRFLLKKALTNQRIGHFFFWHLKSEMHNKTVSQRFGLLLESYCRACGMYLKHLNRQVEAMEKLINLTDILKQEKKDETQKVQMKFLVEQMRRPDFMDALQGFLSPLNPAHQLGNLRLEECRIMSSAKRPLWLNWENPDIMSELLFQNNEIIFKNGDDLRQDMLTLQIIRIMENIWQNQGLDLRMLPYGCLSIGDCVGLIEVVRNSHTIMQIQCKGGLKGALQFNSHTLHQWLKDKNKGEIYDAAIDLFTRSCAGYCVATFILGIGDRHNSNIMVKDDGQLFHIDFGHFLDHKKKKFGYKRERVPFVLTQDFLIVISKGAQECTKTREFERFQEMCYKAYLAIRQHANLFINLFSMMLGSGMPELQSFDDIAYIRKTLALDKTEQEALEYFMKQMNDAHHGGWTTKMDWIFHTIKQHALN

Cyclin-dependent kinase 5, sequence (Q00535 whole entry, looked up): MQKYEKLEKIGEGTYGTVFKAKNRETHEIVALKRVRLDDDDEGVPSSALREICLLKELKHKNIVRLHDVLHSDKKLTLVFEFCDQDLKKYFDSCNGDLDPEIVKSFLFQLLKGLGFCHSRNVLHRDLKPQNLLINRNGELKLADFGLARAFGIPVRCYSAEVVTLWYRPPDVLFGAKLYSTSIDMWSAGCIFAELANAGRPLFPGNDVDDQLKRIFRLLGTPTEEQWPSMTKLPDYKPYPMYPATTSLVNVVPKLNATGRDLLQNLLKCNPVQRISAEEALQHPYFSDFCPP
MAP kinase-interacting serine/threonine-protein kinase 1 (Homo sapiens), sequence (Q9BUB5 whole entry, looked up, canonical isoform): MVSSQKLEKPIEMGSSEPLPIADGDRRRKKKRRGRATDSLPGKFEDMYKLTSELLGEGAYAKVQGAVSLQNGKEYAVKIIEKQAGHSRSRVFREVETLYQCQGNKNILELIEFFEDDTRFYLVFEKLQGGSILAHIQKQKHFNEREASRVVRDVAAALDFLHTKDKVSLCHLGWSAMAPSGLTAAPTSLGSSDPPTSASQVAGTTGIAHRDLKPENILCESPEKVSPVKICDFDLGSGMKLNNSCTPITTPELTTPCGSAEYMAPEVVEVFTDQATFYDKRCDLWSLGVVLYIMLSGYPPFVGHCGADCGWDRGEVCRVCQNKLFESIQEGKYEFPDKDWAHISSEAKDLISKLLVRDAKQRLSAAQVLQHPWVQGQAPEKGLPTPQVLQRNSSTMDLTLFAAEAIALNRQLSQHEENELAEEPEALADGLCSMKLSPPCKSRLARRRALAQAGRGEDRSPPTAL

## O=C(NOC[C@H](O)CO)c1ccc(F)c(F)c1Nc1ccc(I)cc1F
[1]
  % of control: 68%

## C=CC(=O)Nc1cc(-n2c(=O)ccc3cnc4ccc(-c5ccc(NS(C)(=O)=O)cc5)cc4c32)ccc1C
[2]; at 1 µM
  % of control: 88%
[2]; at 10 µM
  % of control: 100%

## Cc1cc([C@@H](C)Nc2ccccc2C(=O)O)c2nc(N3CCOCC3)cc(=O)n2c1 [AZD-6482]
[3]
  % of control: 11%

## CN(C)CCOc1ccc(-c2nc(-c3ccncc3)c(-c3ccc4c(c3)CC/C4=N\O)[nH]2)cc1
[4]
  % of control: 65%

## Cc1cc(F)c(C(=O)Nc2cccc(-c3nncn3C(C)C)n2)cc1-n1cnc(C2CC2)c1
[5]
  % of control: 83%
[6]
  % of control: 96%

## Cn1cc(-n2cnc3c(NCc4nc5cc(Cl)c(Cl)cc5[nH]4)nc(N4CCOCC4)nc32)cn1
[7]
  % of inhibition: 22.8%
